Data published in patent US8466113B2, “4-isopropylphenyl glucitol compounds as SGLT1 inhibitors” (Taisho Pharmaceutical Co., Ltd., priority 2009, dated 2013).

Assay: Kidney concentrations until one week after single oral administration
Format: in vivo
Conditions: Sprague-Dawley (SD/IGS), rat, male Sprague-Dawley rats; for concentration at 24 h / concentration at 72 h / concentration at 168 h: single oral 1 mg/kg
Procedure: (1) Changes in Kidney Concentrations of Compounds Disclosed in WO07/136116 Until One Week After Oral Administration
SD/IGS rats at 7 weeks of age (male, non-fasting, Charles River Laboratories Japan Inc.) were orally administered with compound 10 or 33 (1 mg/kg) or compound 11 (0.3 mg/kg) prepared in a 0.5% aqueous CMC solution. At 24, 72 and 168 hours after drug administration, the rats were exsanguinated via the postcaval vein under ether anesthesia, and their kidneys were excised after they were confirmed to be euthanized. After the tissue surface was washed with physiological saline, each tissue was measured for its weight and homogenized in 4 volumes of purified water under ice cooling. To each homogenate, an acetonitrile/methanol solution containing an internal standard substance was added to remove proteins, and the supernatant was then subjected to LC-MS/MS (Applied Biosystems API3000). Drug-derived ions generated by electrospray ionization in positive ion mode were detected by selective reaction monitoring. The peak area of the resulting extracted ion chromatogram was analyzed by the internal standard method to calculate the drug concentration in the homogenate.
The internal standard substance used for compounds 10 and 33 was (1S)-1,5-anhydro-1-[5-(4-ethoxybenzyl)-2-methoxy-4-methylphenyl]-1-thio-D-glucitol,ethyl-D5, while the internal standard substance used for compound 11 was compound 11 (trishydroxymethyl-D6; —C(CD2OH)3).

[1] = read-out: Concentration of compounds in kidney After 1 day
[2] = read-out: Concentration of compounds in kidney After 3 days
[3] = read-out: Concentration of compounds in kidney After 7 days

Row | concentration at 24 h [1] [ng/g] | concentration at 72 h [2] [ng/g] | concentration at 168 h [3] [ng/g] | concentration at 1 day (single oral 0.3 mg/kg, mean ± S.D., read-out: Concentration of compounds in kidney After 1 day) [ng/g] | concentration at 3 days (single oral 0.3 mg/kg, mean ± S.D., read-out: Concentration of compounds in kidney After 3 days) [ng/g] | concentration at 7 days (single oral 0.3 mg/kg, mean ± S.D., read-out: Concentration of compounds in kidney After 7 days) [ng/g] | Structure (SMILES)
1 | 167 ± 36.3 | 124 ± 21.2 | 53.8 ± 7.61 | – | – | – | Cc1cc(O)c([C@@H]2O[C@H](CO)[C@@H](O)[C@H](O)[C@H]2O)cc1Cc1ccc(CCNC(=O)NC(C)(C)CO)cc1 [compound 10]
2 | 29.8 ± 6.79 | 25.5 ± 8.68 | 16.2 ± 3.11 | – | – | – | Cc1cc(O)c([C@@H]2O[C@H](CO)[C@@H](O)[C@H](O)[C@H]2O)cc1Cc1ccc(CCNC(=O)NC2CCN(Cc3ccccc3)CC2)cc1 [compound 33]
3 | – | – | – | 63.5 ± 20.1 | 67.3 ± 3.15 | 48.7 ± 18.3 | Cc1cc(O)c([C@@H]2O[C@H](CO)[C@@H](O)[C@H](O)[C@H]2O)cc1Cc1ccc(CCNC(=O)NC(CO)(CO)CO)cc1 [compound 11]
